Measured values reported in patent US9296749B2, “Crystalline cis-(E)-4-(3-fluorophenyl)-2′,3′,4′,9′-tetrahydro-N,N-dimethyl-2′-(1-oxo-3-phenyl-2-propenyl)-spiro[cyclohexane-1,1′[1H]” (priority 2013, dated 2016).

Assays:
Assay type in all cases: physicochemical
[1] = Chemical stability of crystalline forms, open-vial storage (content by HPLC, crystalline form by XRPD)
Method: Samples of compound 1 in different crystalline forms were stored in open vials under controlled conditions at different temperatures and rel. humidities for 28 days. Prior to storage and after 14 and 28 days the content of compound (1) in the sample was determined via HPLC and the crystalline form was measured via XRPD.

[2] = Chemical stability in pharmaceutical compositions (excipient mixtures with 10% compound (1)); settings: listed as B
Method: To test the chemical stability, i.e. compatibility of different crystalline forms of compound (1), solid multi component mixtures were prepared comprising well established excipients used for solid oral dosage form and having different functions therein. The single components of each mixture were exactly weighed and intensively triturated using a mortar and a pestle.
10 g of the final mixtures were separately filled into glass vials (open or closed) and stored under the conditions outlined below in table 13. Samples were taken and analyzed initially and after 1, 2 and 3 months with respect to the content of compound (1) within the mixtures.

[3] = Stability of crystalline form B on drying at reduced pressure; settings: dried at 50±2° C., about 7 mBar, 72 hours
Method: The samples were let to cool to room temperature under ambient conditions before they were analyzed.

[4] = Dynamic vapor sorption (DVS), hygroscopicity
Method: Crystalline forms were characterized by dynamic vapor sorption (DVS) using a Porotec DVS 1000 or a SMS DVS Intrinsic water vapor sorption analyzer. For the DVS analysis, a step width of 10% r.h. was applied allowing the samples to equilibrate and reach weight constancy (±0.002%) for at least 10 min on each step. All measurements were performed according to the following program: 50% r.h.→90% r.h., 90→0% r.h., 0%→90% r.h., 90%→50% r.h. A cycle with increasing humidity is also known as a sorption cycle, a cycle with decreasing humidity is also known as a desorption cycle. The details of the respective DVS measurements are shown below in table 51 and discussed further below.
The hygroscopicity of the respective crystalline forms determined via the DVS measurements was classified according to the ranges for mass increase defined in the European Pharmacopoeia: very hygroscopic (vh): increase of the mass ≧15%; hygroscopic (h): increase of the mass is less than 15% and equal or greater than 2%; slightly hygroscopic (sh): increase of the mass is less than 2% and equal or greater than 0.2%; not hygroscopic (nh): increase of the mass is less than 0.2%; deliquescent (d): sufficient water is absorbed to form a liquid.

[5] = Storage of crystalline form C, X-ray diffraction; settings: stored for up to 4 months

CN(C)[C@]1(c2cccc(F)c2)CC[C@]2(CC1)c1[nH]c3ccccc3c1CCN2C(=O)/C=C/c1ccccc1 [crystalline form B, cis-(E)-4-(3-Fluorophenyl)-2′,3′,4′,9′-tetrahydro-N,N-dimethyl-2′-(1-oxo-3-phenyl-2-propenyl)-spiro[cyclohexane-1,1′[1H]-pyrido[3,4-b]indol]-4-amine]
Content cmpd (1) ([1]; 40° C., 75% r.H., storage 0 d, listed as B): 84.85%
Content cmpd (1) ([1]; 40° C., 75% r.H., storage 14 d, listed as B): 84.21%
Content cmpd (1) ([1]; 40° C., 75% r.H., storage 28 d, listed as B): 83.74%
Content cmpd (1) ([1]; 50° C., storage 0 d, listed as B): 84.85%
Content cmpd (1) ([1]; 50° C., storage 14 d, listed as B): 82.63%
Content cmpd (1) ([1]; 50° C., storage 28 d, listed as B): 81.26%
content of compound (1) within the mixture ([2]; Lactose monohydrate, PVP25, Crospovidone, Talcum, 40° C., 75% rel. hum., 0 month): 99.57
content of compound (1) within the mixture ([2]; Lactose monohydrate, PVP25, Crospovidone, Talcum, 40° C., 75% rel. hum., 1 month): 99.22
content of compound (1) within the mixture ([2]; Lactose monohydrate, PVP25, Crospovidone, Talcum, 40° C., 75% rel. hum., 2 months): 99.05
content of compound (1) within the mixture ([2]; Lactose monohydrate, PVP25, Crospovidone, Talcum, 40° C., 75% rel. hum., 3 months): 96.87
content of compound (1) within the mixture ([2]; Lactose monohydrate, PVP25, Crospovidone, Talcum, 50° C. dry, 0 month): 99.57
content of compound (1) within the mixture ([2]; Lactose monohydrate, PVP25, Crospovidone, Talcum, 50° C. dry, 1 month): 95.82
content of compound (1) within the mixture ([2]; Lactose monohydrate, PVP25, Crospovidone, Talcum, 50° C. dry, 2 months): 91.04
content of compound (1) within the mixture ([2]; Lactose monohydrate, PVP25, Crospovidone, Talcum, 50° C. dry, 3 months): 85.33
content of compound (1) within the mixture ([2]; Microcrystalline cellulose, HPMC 6 mPas, L-HPC LH21, magnesium stearate, 40° C., 75% rel. hum., 0 month): 99.69
content of compound (1) within the mixture ([2]; Microcrystalline cellulose, HPMC 6 mPas, L-HPC LH21, magnesium stearate, 40° C., 75% rel. hum., 1 month): 99.53
content of compound (1) within the mixture ([2]; Microcrystalline cellulose, HPMC 6 mPas, L-HPC LH21, magnesium stearate, 40° C., 75% rel. hum., 2 months): 98.57
content of compound (1) within the mixture ([2]; Microcrystalline cellulose, HPMC 6 mPas, L-HPC LH21, magnesium stearate, 40° C., 75% rel. hum., 3 months): 99.39
content of compound (1) within the mixture ([2]; Microcrystalline cellulose, HPMC 6 mPas, L-HPC LH21, magnesium stearate, 50° C. dry, 0 month): 99.75
content of compound (1) within the mixture ([2]; Microcrystalline cellulose, HPMC 6 mPas, L-HPC LH21, magnesium stearate, 50° C. dry, 1 month): 95.74
content of compound (1) within the mixture ([2]; Microcrystalline cellulose, HPMC 6 mPas, L-HPC LH21, magnesium stearate, 50° C. dry, 2 months): 91.45
content of compound (1) within the mixture ([2]; Microcrystalline cellulose, HPMC 6 mPas, L-HPC LH21, magnesium stearate, 50° C. dry, 3 months): 87.34
resulting crystalline form [3]: crystalline form B
hysteresis ([4]; between 10% to 40% relative humidity): > 0.5%

CN(C)[C@]1(c2cccc(F)c2)CC[C@]2(CC1)c1[nH]c3ccccc3c1CCN2C(=O)/C=C/c1ccccc1 [crystalline form C, cis-(E)-4-(3-Fluorophenyl)-2′,3′,4′,9′-tetrahydro-N,N-dimethyl-2′-(1-oxo-3-phenyl-2-propenyl)-spiro[cyclohexane-1,1′[1H]-pyrido[3,4-b]indol]-4-amine]
Content cmpd (1) ([1]; 40° C., 75% r.H., storage 0 d, listed as C): 99.67%
Content cmpd (1) ([1]; 40° C., 75% r.H., storage 14 d, listed as C): 99.68%
Content cmpd (1) ([1]; 40° C., 75% r.H., storage 28 d, listed as C): 99.44%
Content cmpd (1) ([1]; 50° C., storage 0 d, listed as C): 99.67%
Content cmpd (1) ([1]; 50° C., storage 14 d, listed as C): 99.57%
Content cmpd (1) ([1]; 50° C., storage 28 d, listed as C): 99.20%
weight loss ([4]; desorption cycle from 90 to 0% r.h.): about 6.6%
change in mass ([4]; sorption cycle from 50% to 90% relative humidity): no major change in mass
weight gain at 90% ([4]; subsequent sorption cycle): about 2.8%
conversion on storage [5]: converted to Polymorph I in three to four months
